The values below come from PMC8395767, “Worsening of the Toxic Effects of (±)Cis-4,4′-DMAR Following Its Co-Administration with (±)Trans-4,4′-DMAR: Neuro-Behavioural, Physiological, Immunohistochemical and Metabolic Studies in Mice” (International Journal of Molecular Sciences, 2021).

In data set [1] the test system is mice. The data set can be described thus: Psychomotor agitation (observational behavioural test). It is filed as in vivo. Here is the method: The effects of (±)cis-4,4′-DMAR, (±)trans-4,4′-DMAR and their co-administration were investigated by a protocol widely used in studies of “safety pharmacology” for the preclinical characterization of new molecules in rodents. This protocol includes a series of observational behavioural tests carried out in a consecutive manner that monitor the animal responses up to 5 h after compound injections. In the present study, we reported the observation of physiological (sweating, salivation, core temperature) and neuro-behavioural (detection of psychomotor agitation, spontaneous and stimulated aggressiveness, convulsions) changes occurring in mice after injection of (±)cis-4,4′-DMAR, (±)trans-4,4′-DMAR and their co-administration. Before pharmacological treatment the mouse was placed on a square plate (30 cm× 30 cm) raised from the ground (20 cm) and left free to move on the plate for 10 min (habituation period). The animal was then injected with the vehicle, substances alone ((±)cis-4,4′-DMAR or (±)trans-4,4′-DMAR) or in cis + trans co-administration and placed on the plate. From this moment, the recording time of the physiological and neuro-behavioural responses started, and these were detected in 5-min sessions.
After the first 5 min, the animal was removed from the plate; the body core temperature was then measured, and the aggression tests were performed. The 5-min observation period was repeated at 15–30–60–90–120–180–240–300. Psychomotor agitation in the mouse was not simply related to an increase in spontaneous locomotion itself, but by an “unusual hyperactivity” which was characterised by rapid and sudden horizontal displacements in all directions, sustained turning behaviour, involuntary falls from the high plate during the evaluation of the tests, stereotyped movements and rearing activity. Mouse sweating and salivation were reported only if present or not. The core temperature was determined using a probe (1 mm diameter) that was gently inserted after lubrication with liquid Vaseline into the rectum of the mouse (to about 2 cm) and left in position until the temperature stabilised (about 10 s). The probe was connected to a digital thermometer. Spontaneous aggressive response was measured based on the number of times a mouse bit a grey cloth put in front of its snout. During the test, each mouse was free to move within the cage. In the case of stimulated aggressiveness, each mouse was manually restrained and held in a supine position following which an object was brought near the mouth. For both spontaneous and stimulated aggressive behaviour tests, a grey cloth was placed in front of the nose of each mouse 10 consecutive times (score 0/10 not aggressive, score 10/10 very aggressive). Convulsions were defined as a loss of righting reflexes for at least 5 s, combined with the presence of body tremors and clonic or tonic limb movements. Deaths caused by 4-4’-DMAR injection occurring during the observation period (5 h) were also reported as frequency (%) and time of death (min). Experiments were conducted inside the LARP (Centralised Preclinical Research Laboratory, University of Ferrara, Ferrara, Italy) in a thermo-stated (temperature 20–22 °C, humidity about 45–55%) and light controlled (about 150 lux) room, in which there was a background noise of about 40 ± 4 dB. The experiments, conducted in blind by trained observers working together in pairs, were videotaped and eventually analysed off-line by a different trained operator. The experiments were performed between 8:30 a.m. and 2:00 p.m.
Sweating and salivation were expressed as frequency (e.g., % of animals that developed symptoms); psychomotor agitation was expressed as frequency (% of animals) and duration (total time in mins). Core temperature values were expressed as the difference between control temperature (before injection) and temperature following drug administration (Δ°C). […]

The subject of a further data set is frontal cortex. The data set can be described thus: Histology of brain (haematoxylin/eosin). It is filed as in vivo, mice. The following applies: 30 mg/kg, compared to controls. The source says:
Following the acute death or the sacrifice of the animals (after 5-h observation period by dislocation of the spine), brains were taken. These were fixed in 4% buffered formalin and then sampled and incorporated into the paraffin (Leica ASP300 processor, Histoline TEC2900 incorporator; Leica Microsystems Srl, Buccinasco, Milano, Italy). Subsequently, the cut (performed with the Leica HistoCore autocut microtome; Leica Microsystems Srl, Buccinasco, Milano, Italy) was designed to create sections with a thickness of 5 µm for each sample.
For histological investigations, the sections were stained with haematoxylin/eosin and then observed under optical microscope (Nikon Eclipse E90i; Nikon, Roma, Italy).

In data set [2] the test system is mice. The experiment in a line: Physiological and neuro-behavioural responses, all parameters (safety pharmacology protocol). It is filed as in vivo. Here is the method:
The effects of (±)cis-4,4′-DMAR, (±)trans-4,4′-DMAR and their co-administration were investigated by a protocol widely used in studies of “safety pharmacology” for the preclinical characterization of new molecules in rodents. This protocol includes a series of observational behavioural tests carried out in a consecutive manner that monitor the animal responses up to 5 h after compound injections. […] From this moment, the recording time of the physiological and neuro-behavioural responses started, and these were detected in 5-min sessions.
After the first 5 min, the animal was removed from the plate; the body core temperature was then measured, and the aggression tests were performed. […] The core temperature was determined using a probe (1 mm diameter) that was gently inserted after lubrication with liquid Vaseline into the rectum of the mouse (to about 2 cm) and left in position until the temperature stabilised (about 10 s). […] Spontaneous aggressive response was measured based on the number of times a mouse bit a grey cloth put in front of its snout. […] The experiments, conducted in blind by trained observers working together in pairs, were videotaped and eventually analysed off-line by a different trained operator. […]

In another data set the test system is DAT. Set-up: method as in PMID 25331619. Particulars: rat brain tissue, lower potency than (±)cis-4,4′-DMAR; cited from earlier work.
The next data set deals with NET. Details: method as in PMID 25331619. The following applies: rat brain tissue, lower potency than (±)cis-4,4′-DMAR; cited from earlier work.
Another data set has as its system SERT. Details: method as in PMID 25331619. Particulars: rat brain tissue, lower potency than (±)cis-4,4′-DMAR; cited from earlier work.
Setting [3] is: 10 mg/kg i.p., n=4 mice (animals of the urine excretion study).

Marks after values point to notes of the source that are not given here.

For `Cc1ccc(C2OC(N)=NC2C)cc1` (stereo not drawn) [cis-4,4’-DMAR, 4-methyl-5-(4-methylphenyl)-4,5-dihydrooxazol-2-amine], the “Psychomotor agitation Frequency % (n° of mice)” value is “ineffective” with mice [1] (1 mg/kg i.p., n=6 mice); 100% (6) in the data set with mice [1] (3 mg/kg i.p., n=6 mice); 100% (4) in the data set on mice [1] (setting [3]); 100% (6) in the data set on mice [1] (10 mg/kg i.p., n=6 mice); 100% in the data set on mice [1] (10 mg/kg i.p., n=6 mice, listed as (±)cis-4,4′-DMAR); 100% (6) with mice [1] (30 mg/kg i.p., n=6 mice). Also, the “Psychomotor agitation Frequency % (n° of mice)” value in the data set with mice [1] (60 mg/kg i.p., n=6 mice) is recorded as 100% (6). Also, the “Psychomotor agitation Duration” value stood at 54.2 ± 10.30 min in the data set on mice [1] (3 mg/kg i.p., n=6 mice); 125.0 ± 10.12 min in the data set on mice [1] (setting [3]); 121.0 ± 12.35 min in the data set on mice [1] (10 mg/kg i.p., n=6 mice). The “Psychomotor agitation Latency” value turned out to be 61.2 ± 6.30 min in the data set on mice [1] (3 mg/kg i.p., n=6 mice); 26.4 ± 6.25 min in the data set with mice [1] (setting [3]); 28.2 ± 7.20 min with mice [1] (10 mg/kg i.p., n=6 mice); 2.2 ± 0.15 min in the data set with mice [1] (60 mg/kg i.p., n=6 mice). In addition, in the data set with mice [1] (10 mg/kg alone, mice), the “Psychomotor agitation, start of effect” value is listed as “about thirty”. The “Psychomotor agitation Duration (min)” value in the data set on mice [1] (10 mg/kg i.p., n=6 mice) is 121.0 ± 12.35 ^a min; in the data set with mice [1] (30 mg/kg i.p., n=6 mice), 235.1 ± 15.25 ^ab min; with mice [1] (60 mg/kg i.p., n=6 mice), 280.1 ± 12.35 ^ab min. In addition, the “Psychomotor agitation Latency (min)” value in the data set on mice [1] (10 mg/kg i.p., n=6 mice) is listed as 28.2 ± 7.20 ^a min; in the data set on mice [1] (30 mg/kg i.p., n=6 mice), 3.2 ± 0.25 ^ab min; in the data set with mice [1] (60 mg/kg i.p., n=6 mice) it was 2.2 ± 0.15 ^ab min. In addition, the “Psychomotor agitation, dose range in which the effect was significant” value with mice [1] (i.p., mice, tested 0.1–60 mg/kg) was in the range of 3 to 60 mg/kg. In the data set with frontal cortex, the “Histology of the frontal cortex (edema, vacuolization areas)” value was “mild edema”.

On to `Cc1ccc(C2OC(N)=NC2C)cc1` (stereo not drawn) [trans-4,4’-DMAR, 4-methyl-5-(4-methylphenyl)-4,5-dihydrooxazol-2-amine], for which the “Physiological and neuro-behavioural changes” value with mice [2] (30 and 60 mg/kg, systemic administration) was “did not induce any physiological and neuro-behavioural changes”. Also, the “Physiological and neuro-behavioural parameters, all parameters studied” value with mice [2] (lower doses of 0.1 and 1 mg/kg) is “inactive”. Also, the “Mode of action at DAT” value in the data set with DAT is recorded as “substrate-type releaser”. Also, the “Mode of action at NET” value in the data set with NET is “substrate-type releaser”. In addition, the “Mode of action at SERT” value in the data set with SERT is given as “uptake blocker”.
